Reference: patent US5051419A, “Prevention or elimination of mycoplasma contamination of animal or plant cell cultures” (Dainippon Pharmaceutical Co., Ltd., priority 1988, dated 1991)
In brackets after ≈: the same amount, converted by molar mass. Where two headings read alike, the source gives them in different places. Each block holds one molecule with its values, some of them ahead of it.

Tests used:
M. pnumoniae Mac = test: Anti-mycoplasmal activity (MIC), agar-dilution method; assay type: cell-based, Mycoplasma pneumoniae; details: Mycoplasma
Protocol: (§1) The minimum growth inhibitory concentrations (MIC; μg/ml) of the test chemicals were measured by the agar-dilution method.
(§2) (1) Preparation of a mycoplasma suspension for inoculation
(§3) A stored frozen suspension of mycoplasma (0.2 to 0.3 ml) was inoculated in 2 to 3 ml of a preculture medium to be described later. It was serially diluted tenfold until the dilution ratio reached 10,000 times. These diluted solutions were cultivated at 37° C. for 2 to 7 days. A culture having the highest dilution ratio was selected from those cultures in which a color change of the media was noted as a result of mycoplasma growth. It was diluted to 100 times with the preculture medium to prepare a mycoplasma suspension for inoculation.
(§4) The following preculture media were used.
(§5) For Mycoplasma pneumoniae and Acholeplasma laidlawii, Chanock liquid medium containing 0.5% glucose (pH 7.8) [Library of Bacteriology 2, "Procedures for Isolation and Identification of Human, Animal and Plant Mycoplasmas", edited by Japanese Society for Bacteriology, page 8 (1982), Saikon Publishing Co.] was used.
(§6) (2) Preparation of agar plates containing the test chemicals
(§7) A 1,000 μg/ml aqueous solution of each test chemical was prepared (a difficultly-soluble chemical was dissolved by adding an equimolar amount of sodium hydroxide; the same applies hereinafter). The solution was used as a base solution and its twofold serial dilutions were prepared. The diluted solutions were pipetted on plastic petri dishes each in an amount of 1 ml. The Chanock agar medium (for Mycoplasma hyorhinis, 0.5% mucin was further added) described at page 9 of the above cited "Procedures for Isolation and Identification of Human, Animal and Plant Mycoplasmas" was heated and kept at 55° C. and put in an amount of 9 ml in each of the petri dishes containing the test chemicals and fully mixed with the test chemicals to prepare agar plates containing the test chemicals.
(§8) The mycoplasma suspension for inoculation prepared by the procedure described in section (1) was inoculated in an amount of about 3 microliters on each of the chemical-containing agar plates by means of a Cathra-replicator (3 mm pin). The plates on which Mycoplasma pneumoniae, Mycoplasma arginini, and Acholeplasma laidlawii and Mycoplasma hyorhinis were inoculated were tightly packed in a plastic bag together with the plasic petri dishes including water-immersed absorbent cotton. Mycoplasma pneumoniae was aerobically cultivated at 37° C. under highly humid conditions for 7 days; and Mycoplasma arginini and Acholeplasma laidlawii, for 2 days. The other mycoplasma species were cultivated anaerobically for 2 days by using a GasPak anaerobic system (BBL). After the cultivation, growth of mycoplasma were observed under an OLYMPUS microscope (20-100 X). The lowest concentration of the test chemical at which no growth of mycoplasma was noted is defined as MIC.

M. orale CH19299 = test: as above; assay type: cell-based, Mycoplasma orale; details: Metamycoplasma orale
Protocol: as §1, §2, §3, §4
(§9) For other mycoplasma species, Chanock liquid medium (pH 6.8) containing 0.2% arginine was used.
as §6, §7, §8

M. salivarium PG20 = test: as above; assay type: cell-based, Mycoplasma salivarium; details: Metamycoplasma salivarium
Protocol: as §1, §2, §3, §4, §9, §6, §7, §8

A. laidlawii PG8 = test: as above; assay type: cell-based; details: Acholeplasma laidlawii
Protocol: as §1, §2, §3, §4, §5, §6, §7, §8

M. arginini G230 = test: as above; assay type: cell-based, Mycoplasma arginini; details: Mycoplasmopsis arginini
Protocol: as §1, §2, §3, §4, §9, §6, §7, §8

M. hyorhinis BST7 = test: as above; assay type: cell-based, Mycoplasma hyorhinis; details: Mesomycoplasma hyorhinis
Protocol: as §1, §2, §3, §4
For Mycoplasma hyorhinis, a liquid medium (pH 7.8) for isolation of Mycoplasma hyorhinis [Journal of the Japan Veterinary Medical Association,32, 34-38 (1979)] was used.
as §6, §7, §8

M. orale CH-19299 = test: Anti-mycoplasmal activity (MIC, MMC), liquid dilution method; assay type: cell-based, Mycoplasma orale; details: Metamycoplasma orale
Protocol: (§10) The minimum growth inhibitory concentration (MIC, μg/ml) and minimum mycoplasmacidal concentration (MMC, μg/ml) of test chemicals were measured by the liquid dilution method. The method of measuring MIC in this example differs from that used in Test Example 1.
(§11) A 1,000 μg/ml aqueous solution of a test chemical was prepared, and diluted to 5 times with a preculture medium. The dilution (200 μg/ml) was serially diluted twofold with the same medium in a 8-well reservoir. Fifty microliters of each diluted solution was distributed in the wells of a microplate. A well to which no test chemical was added was used as a control.
(§12) A mycoplasma suspension for inoculation prepared as in Test Example 1 was pipetted in an amount of 50 microliters to each of the wells. The microplates were sealed by a plate seal, shaken by a micromixer, and cultivated at 37° C. for 5 days. In the control to which no test chemical was added, color change of the medium by the growth of mycoplasma was observed after two days from the start of the cultivation. At this time, 3 microliters of the liquid culture was inoculated in drug-free Chanock agar medium by using a Cathra-replicator. The liquid culture and the agar medium were further cultivated at 37° C. for 3 days (anaerobically in the case of M. orale, and aerobically in the case of A. laidlawii and M. arginini). MIC and MMC were determined from the results of observation on the 5th day. MIC was defined as the lowest concentration of the test chemical at which growth of mycoplasma in the drug-containing liquid medium was not noted, and MMC, as that in the drug-free agar medium.

A. laidlawii PG-8 = test: as above; assay type: cell-based; details: Acholeplasma laidlawii
Protocol: as §10, §11, §12

M. arginini G-230 = test: as above; assay type: cell-based, Mycoplasma arginini; details: Mycoplasmopsis arginini
Protocol: as §10, §11, §12

FL human-amnion cells = test: Cytotoxicity on FL cells (cell proliferation inhibition); assay type: cell-based; details: Homo sapiens, 72 h, read-out: IC50 (50% cell proliferation inhibitory concentration)
Protocol: Whether test chemicals would inhibit growth of cells was examined.
A 1,000 μg/ml aqueous solution of each of the test chemicals was serially diluted twofold with Eagle's minimum essential medium.
FL human-amnion cells (2×10^4 cells) were suspended in 3.6 ml of 10% FBS-MEM medium, put in petri dishes (diameter 60 mm) for tissue culture, and cultivated at 37° C. in 5% CO2 humidified atmosphere for 48 hours. The test chemical solution prepared as above was added in an amount of 0.4 ml to each of the petri dishes in predetermined concentrations, and the cells were cultivated for 3 days. After the cultivation, the medium was removed, and the remainder was washed once with Dulbecco's phosphate buffer (pH 7.4). The cells were peeled off by adding 0.2 ml of a 2.5% trypsin-0.002% EDTA mixed solution (1:9) and properly diluted with 10% FBS-MEM medium. Then, the number of the cells was counted by an Erma hemocytometer.
The cell proliferation rate was calculated by following formula [formula]

mycoplasma = details: in words, background; cited from earlier work

SMILES: O=C(O)c1cn(C2CC2)c2cc(N3CCNCC3)c(F)cc2c1=O [Compound 2, ciprofloxacin]
MIC (M. pnumoniae Mac): 0.39 µg/mL (≈ 1.18 µM)
MIC (M. orale CH19299; CH19299): 1.56 µg/mL (≈ 4.71 µM)
MIC (M. salivarium PG20; PG20): 3.13 µg/mL (≈ 9.45 µM)
MIC (A. laidlawii PG8; PG8): 0.39 µg/mL (≈ 1.18 µM)
MIC (M. arginini G230; G230): 0.78 µg/mL (≈ 2.35 µM)
MIC (M. hyorhinis BST7; BST7): 0.78 µg/mL (≈ 2.35 µM)
MIC (M. orale CH-19299; CH19299): 1.56 µg/mL (≈ 4.71 µM)
MBC (M. orale CH-19299; CH19299, 120 h, read-out: MMC): 1.56 µg/mL (≈ 4.71 µM)
MIC (A. laidlawii PG-8; PG8): 0.39 µg/mL (≈ 1.18 µM)
MBC (A. laidlawii PG-8; PG8, 120 h, read-out: MMC): 0.39 µg/mL (≈ 1.18 µM)
MIC (M. arginini G-230; G230): 0.78 µg/mL (≈ 2.35 µM)
MBC (M. arginini G-230; G230, 120 h, read-out: MMC): 0.78 µg/mL (≈ 2.35 µM)
IC50 (FL human-amnion cells): 28 µg/mL (≈ 84.5 µM)

MIC (M. pnumoniae Mac; agar dilution, M. pnumoniae Mac, read-out: MIC): 0.78 µg/mL (≈ 2.16 µM)
MIC (M. orale CH19299; agar dilution, M. orale CH19299, read-out: MIC): 1.56 µg/mL (≈ 4.32 µM)
MIC (M. salivarium PG20; agar dilution, M. salivarium PG20, read-out: MIC): 6.25 µg/mL (≈ 17.3 µM)
MIC (A. laidlawii PG8; agar dilution, A. laidlawii PG8, read-out: MIC): 0.78 µg/mL (≈ 2.16 µM)
MIC (M. arginini G230; agar dilution, M. arginini G230, read-out: MIC): 0.78 µg/mL (≈ 2.16 µM)
MIC (M. hyorhinis BST7; agar dilution, M. hyorhinis BST7, read-out: MIC): 3.13 µg/mL (≈ 8.66 µM)
SMILES: CC1COc2c(N3CCN(C)CC3)c(F)cc3c(=O)c(C(=O)O)cn1c23 (stereo not drawn) [Compound 4]

SMILES: C=C[C@]1(C)C[C@@H](OC(=O)CSCCN(CC)CC)[C@]2(C)[C@H](C)CC[C@]3(CCC(=O)[C@H]32)[C@@H](C)[C@@H]1O [tiamulin]
minimum growth inhibitory concentration (MIC) for mycoplasma (mycoplasma): low
mode of action on mycoplasma (mycoplasma): only act bacteriostatically and not mycoplasmacidally
